Experimental findings from PubChem BioAssay AID1981 (Southern Research Specialized Biocontainment Screening …, 2009) are described below.

“And” between values parts separate entries of the source, which are not always exact repeats. Identical values can stand only once.

This assay relates to S. Typhimurium PhoP-promoter GFP reporter counterscreen, fluorescence, 4 h. Description: S. Typhimurium GFP fluorescence dose response in modified counterscreen for PhoP regulon inhibitor project (AID 1981). (In general: A counterscreen serves to expose hits that act by an unwanted route or on another target.)
In the case of `COc1ccc(/C=N/Nc2cc(C)nc3ccccc23)cc1`, the IC50 was 84.8 µM.

For `CN1CCN(C(c2ccc(Cl)cc2)c2cc(Cl)c3cccnc3c2O)CC1` (centres undefined), the IC50 is 32.9 µM.

In the case of `O=C(C[n+]1cc(-c2ccc(Cl)cc2)n2c1CCC2)Nc1nc(-c2ccccc2)cs1`, the IC50 is 95 µM.

With `CCOc1cccc(CNc2ccc(O)cc2)c1OCc1ccc(Cl)cc1Cl`, the IC50 was 125 µM.

Turning to `C#CCOCCOCCOCCNc1nc(N2CCN(C(=O)CCCCCCCCCCNC(=O)[C@H](CCCN=C(N)N)n3cc(C[C@@H](C)CC)nn3)CC2)nc(N2CCN(C(=O)CCCCCCCCCCNC(=O)[C@@H]([C@H](C)CC)n3cc(CCCCCN)nn3)CC2)n1`, the IC50 is 41.4 µM.

As for `NC1=NC[C@H](Cc2ccccc2)N1CCCCC1CCCCC1`, the IC50 is 61.1 µM.

Turning to `COC(=O)C(C)NC(=S)N1CCN(c2c(F)cc3c(=O)c(C(=O)O)cn(C4CC4)c3c2OC)CC1C` (centres undefined), the IC50 was 60.6 µM.

For the compound `CCCCCc1ccc(OCCOCCn2c[n+](C)c3ccccc32)c(CCCCC)c1`, the IC50 is 55 µM.

With `Nc1cc2nsnc2cc1Br`, the IC50 is 30.1 µM.

For the compound `O=C1c2ccccc2C(=O)N1c1cccc(-c2csc(Nc3ccc4c(c3)OCO4)n2)c1`, the IC50 was 128 µM.

For `Oc1ccccc1NCC(O)Cn1ccc2ccccc21` (centres undefined), the IC50 was 130 µM.

`C#CCOCCOCCOCCNc1nc(N2CCN(C(=O)CCCCCCCCCCNC(=O)[C@H](CCCCN)n3cc(C[C@@H](C)CC)nn3)CC2)nc(N2CCN(C(=O)CCCCCCCCCCNC(=O)[C@H](CCCN=C(N)N)n3cc(C[C@@H](C)CC)nn3)CC2)n1`: the IC50 was 140 µM.

Turning to `CCCCOc1ccc(Cc2cnc(N)nc2N)cc1`, the IC50 was 81.3 µM.

Turning to `O=C(O)CSc1cc(NS(=O)(=O)c2cccc([N+](=O)[O-])c2)c2ccccc2c1O`, the IC50 is 73.2 µM.

Take `CCc1ccc(CNc2ccc(O)cc2)cc1`: the IC50 was 94.9 µM.

With `CCC(C)(C)c1ccc(OCCCC[n+]2ccc(C)cc2)c(C(C)(C)CC)c1`, the IC50 is 83.2 µM.

`Oc1c(CN2CCOCC2)cc(COCc2ccccc2)c2cccnc12`: the IC50 was 98.2 µM.

In the case of `CO[C@@]1(NC(=O)C2SC(=C(C(N)=O)C(=O)O)S2)C(=O)N2C(C(=O)O)=C(CSc3nnnn3C)CS[C@@H]21` (some centres undefined), the 50% inhibitory concentration (IC50) is 21.7 µM.

As for `CC1CCc2c(N3CCC(O)CC3)c(F)cc3c(=O)c(C(=O)O)cn1c23` (centres undefined), the IC50 was 6.56 µM.

Take `NC(=NCCCCCCN=C(N)/N=C(\N)Nc1ccc(Cl)cc1)/N=C(\N)Nc1ccc(Cl)cc1`: the IC50 was 9.12 µM and 9.93 µM and 9.09 µM.

Take `O=C(Nc1cccc(N=Cc2cc(Br)cc(Br)c2O)c1)c1ccco1`: the IC50 is 119 µM.

On to `CCCC(=O)NC(c1ccccc1)c1ccc2cccnc2c1O` (centres undefined), for which the IC50 is 32.1 µM.

For the compound `COc1ccc(C(=O)Cn2nc(CNc3ccc(Br)cc3)[n+]3c2CCCCC3)cc1`, the IC50 is 106 µM.

On to `Cc1ccc(C(=O)N/N=C/c2cc(Br)ccc2O)cn1`, for which the IC50 was 68.4 µM.

On to `NC1=NC2(CCCCC2)N=C(Nc2ccc(Br)cc2)N1`, for which the IC50 is 138 µM.

Regarding `CCCCCCCOC(=O)C[N+](C)(C)CCOC1CC2CCC1(C)C2(C)C` (centres undefined), the IC50 is 40.6 µM.

For `COC12C(COC(N)=O)C3=C(C(=O)C(C)=C(N)C3=O)N1CC1C2N1C` (centres undefined), the IC50 is 65.8 µM.

With `Oc1c(C(c2ccccn2)N2CCOCC2)ccc2cccnc12` (centres undefined), the IC50 was 118 µM.

Take `CC(=O)NC(c1ccc(C)cc1)c1cc([N+](=O)[O-])c2cccnc2c1O` (centres undefined): the IC50 was 37.9 µM.

As to `Nc1ncn([C@@H]2O[C@H](CO)[C@@H](O)[C@H]2O)c(=O)n1`, the IC50 is 19.4 µM.

With `CC[C@@H](C)[C@H](CNC)NC[C@@H](Cc1cccc2ccccc12)NCCc1cccc(C(F)(F)F)c1`, the IC50 is 39.9 µM.

As for `CCCCCCCCCCOC(=O)C[N+](C)(C)C/C=C(/C)Cl`, the IC50 is 83.3 µM.

`CN(C)c1ccc(/C=C/c2ccc3c4ccccc4ccc3[n+]2-c2ccccc2)cc1`: the IC50 is 18.8 µM.

In the case of `Cc1nnc(N/N=C/c2ccccn2)[nH]c1=O`, the IC50 was 21.2 µM.

As for `O=c1[nH]cc(F)c(=O)[nH]1`, the IC50 is 4.17 µM.

Consider `COc1ccc(C(C[N+](=O)[O-])c2c(-c3ccccc3)cc3ccccn23)cc1` (centres undefined), for which the IC50 was 56.9 µM.

As for `COc1c(N2CCN[C@H](C)C2)c(F)cc2c(=O)c(C(=O)O)cn(C3CC3)c12`, the IC50 was 0.34 µM.

For the compound `O=C(N/N=C\C=C\c1ccc([N+](=O)[O-])o1)c1cccs1`, the IC50 is 34.8 µM.

Consider `C[C@H]1c2cccc(O)c2C(O)=C2C(=O)[C@]3(O)C(O)=C(C(N)=O)C(=O)[C@@H](N(C)C)[C@@H]3[C@@H](O)[C@@H]21`, for which the IC50 is 1.54 µM.

As to `OC(c1cc(-c2ccc(C(F)(F)F)cc2)nc(C(F)(F)F)c1)C1CCCCN1` (centres undefined), the IC50 was 42.2 µM.

As to `O=C1C=C(N2CCOCC2)c2ccccc2C1=O`, the IC50 was 69.9 µM.

Consider `CCn1cc(C(=O)O)c(=O)c2ccc(C)nc21`, for which the IC50 is 117 µM.

In the case of `COc1c(N2CCN(C(=S)NCc3ccccc3)C(C)C2)c(F)cc2c(=O)c(C(=O)O)cn(C3CC3)c12` (centres undefined), the IC50 was 31.9 µM.

Consider `CCCc1nnc(NC(=O)c2cn(CC)c3cc(N4CCN(C)CC4)c(F)cc3c2=O)s1`, for which the IC50 was 109 µM.

With `CNC(=S)N1CCN(c2c(F)cc3c(=O)c(C(=O)O)cn(C4CC4)c3c2OC)CC1C` (centres undefined), the IC50 was 15.2 µM.

Consider `CCN(CC)c1ccc(/C=N/Nc2nc3ccccc3[nH]2)c(O)c1`, for which the IC50 was 39.9 µM.

For the compound `Cc1cc(NC(c2cccnc2)c2ccc3cccnc3c2O)no1` (centres undefined), the IC50 was 130 µM.

Consider `O=C(N/N=C/c1cc2c3c(c1O)CCCN3CCC2)c1ccccc1O`, for which the IC50 is 135 µM.

As to `CN(C)[C@@H]1C(=O)C(C(N)=O)=C(O)[C@@]2(O)C(=O)C3=C(O)c4c(O)cccc4[C@@](C)(O)C3[C@H](O)C12` (some centres undefined), the IC50 is 1.34 µM.

In the case of `CCCCC(CC)CN=C(N)NC(N)=NCCCCCCN=C(N)NC(N)=NCC(CC)CCCC` (centres undefined), the concentration for half-maximal inhibition (IC50) is 5.47 µM.

As to `CCN(CC(=O)NC(C)(C)C)C(=O)COc1c(Cl)cc(Cl)c2ccc(C)nc12`, the IC50 was 136 µM.

With `CCOc1cc(/C=N/N=C(N)N)ccc1OCc1ccc(Cl)cc1`, the IC50 is 56.8 µM.

As to `CC[C@H]1OC(=O)[C@H](C)[C@@H](O[C@H]2C[C@@](C)(OC)[C@@H](O)[C@H](C)O2)[C@H](C)[C@@H](O[C@@H]2O[C@H](C)C[C@H](N(C)C)[C@H]2O)[C@](C)(O)C[C@@H](C)CN(C)[C@H](C)[C@@H](O)[C@]1(C)O`, the IC50 is 3.63 µM.

Turning to `C[C@H]1COc2c(N3CCN(C)CC3)c(F)cc3c(=O)c(C(=O)O)cn1c23`, the IC50 was less than 0.23 µM.

On to `Clc1ccc(CNCc2cccs2)cc1Cl`, for which the IC50 is 123 µM.

Consider `CCn1cc(C(=O)O)c(=O)c2cc(F)c(N3CCN(C(=S)NC(=O)c4ccc(F)cc4)CC3)cc21`, for which the IC50 is 53.4 µM.

Take `Cc1ccc(Nc2c3c(nc4ccccc24)CCC3)cc1`: the IC50 was 146 µM.

Take `O=C(N/N=C/c1cc(O)ccc1Br)c1cccnc1`: the IC50 is 43.5 µM.

On to `Cc1cc(C)c2ccc(N)nc2c1O`, for which the IC50 is 49.9 µM.

In the case of `Cc1nc(N)nc(N)c1/C=C/C(C)(C)c1ccc(Cl)cc1`, the IC50 is 12.9 µM.

`Oc1cccc(C=NCc2ccccc2)c1O`: the concentration for half-maximal inhibition (IC50) was 109 µM.

With `Cc1ccc(C(C[N+](=O)[O-])c2c(-c3ccccc3O)[nH][nH]c2=O)cc1` (centres undefined), the half-inhibitory concentration (IC50) is 39.2 µM.

Regarding `O=C(C[n+]1cc(-c2ccc(Cl)c(Cl)c2)n2c1CCC2)N1c2ccccc2Sc2ccccc21`, the half-maximal inhibitory concentration (IC50) is 84.7 µM.

Consider `O=C(Nc1nnc(-c2cccs2)o1)c1cccc(Oc2ccccc2)c1`, for which the IC50 was 54.6 µM.

The IC50 is the midpoint of a concentration-inhibition curve.
